How the values were obtained:
crabgrass = assay: Test B pre/postemergence crabgrass; format: in vivo, Digitaria sanguinalis
Procedure, shortened: (§1)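 Test chemicals in a non-phytotoxic solvent mixture with surfactant were sprayed preemergence onto planted seeds and postemergence onto plants 2 to 18 cm tall (1- to 4-leaf stage). After twelve to sixteen days in a greenhouse, injury was visually rated against untreated controls from 0 (no effect) to 10 (complete control).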

purple nutsedge = assay: Test B pre/postemergence purple nutsedge; format: in vivo, Cyperus rotundus
Procedure, shortened: as §1

duck salad = assay: Test B flood test duck salad; format: in vivo, Heteranthera limosa
Procedure, shortened: (§2)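 Plants were grown to the 2-leaf stage before treatment with test chemical, then held in a greenhouse for twelve to sixteen days. Injury was visually rated against untreated controls on a 0–10 scale, where 0 is no effect and 10 is complete control.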

bamyardgrass = assay: Test B flood test barnyardgrass; format: in vivo, Echinochloa crus-galli
Procedure, shortened: as §2

winter wheat [1] = assay: Test E winter wheat; format: in vivo, Triticum aestivum; settings: Postemergence; for Wheat (winter) plant response rating: Rate 250 g/ha
Procedure, shortened: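 Greenhouse-grown plants are treated (postemergence: 1- to 4-leaf stage, sandy loam/potting mix 60:40), then evaluated visually versus untreated controls some 21 to 28 days later.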

blackgrass = assay: Test E blackgrass; format: in vivo, Alopecurus myosuroides; settings: Preemergence; for Blackgrass plant response rating (0 to 100 scale): Rate 250 g/ha
green foxtail = assay: Test E green foxtail; format: in vivo, Setaria viridis; settings: Preemergence; for Green foxtail plant response rating (0 to 100 scale): Rate 250 g/ha
Italian ryegrass = assay: Test E Italian ryegrass; format: in vivo, Lolium multiflorum; settings: Preemergence; for I. Ryegrass plant response rating (0 to 100 scale): Rate 250 g/ha
winter wheat [2] = assay: Test E winter wheat; format: in vivo, Triticum aestivum; settings: Preemergence; for Wheat (winter) plant response rating (0 to 100 scale): Rate 250 g/ha
wild oat = assay: Test E wild oat; format: in vivo, Avena fatua; settings: Preemergence; for Wild oat plant response rating (0 to 100 scale): Rate 250 g/ha
winter barley = assay: Test E winter barley; format: in vivo, Hordeum vulgare; settings: Preemergence; for Barley (winter) plant response rating (0 to 100 scale): Rate 250 g/ha
[3] = Preemergence, Rate 62 g/ha, scale of 0 to 10 where 0 is no effect and 10 is complete control
[4] = Preemergence, Rate 250 g/ha, scale of 0 to 10 where 0 is no effect and 10 is complete control
[5] = Preemergence, Rate 500 g/ha, scale of 0 to 10 where 0 is no effect and 10 is complete control
[6] = Rate 62 g/ha, Postemergence, scale 0 to 10 (0 no effect, 10 complete control)
[7] = Rate 125 g/ha, Postemergence, scale of 0 to 10 where 0 is no effect and 10 is complete control
[8] = Rate 125 g/ha, Preemergence, scale of 0 to 10 where 0 is no effect and 10 is complete control
[9] = Rate 250 g/ha, Postemergence, scale of 0 to 10 where 0 is no effect and 10 is complete control
[10] = Rate 62 g/ha, headed Pre-emergence (flood test species), scale 0 to 10 (0 no effect, 10 complete control)
[11] = Rate 125 g/ha, Pre-emergence, flood test species, scale 0 to 10 where 0 is no effect and 10 is complete control
[12] = Rate 250 g/ha, Pre-emergence, flood-test species, scale 0 to 10, 0 is no effect, 10 is complete control
[13] = Rate 500 g/ha, Pre-emergence, flood test species, scale 0 to 10 (0 no effect, 10 complete control)
[14] = Rate 1000 g/ha, 0 to 100 scale where 0 is no effect and 100 is complete control
[15] = 0 to 100 scale where 0 is no effect and 100 is complete control
[16] = Rate 500 g/ha, 0 to 100 scale, 0 is no effect, 100 is complete control
[17] = Rate 1000 g/ha, 0 to 100 scale, 0 no effect, 100 complete control
[18] = Rate 500 g/ha, 0 to 100 scale (0 no effect, 100 complete control)
[19] = Preemergence, Rate 31 g/ha, visual rating, scale 0 to 10 (0 no effect, 10 complete control)
[20] = Rate 16 g/ha, Postemergence, scale 0 to 10, 0 no effect, 10 complete control
[21] = Rate 16 g/ha, Preemergence, scale 0 to 10, 0 no effect, 10 complete control
[22] = Rate 31 g/ha, Postemergence, scale 0 to 10
[23] = Rate 16 g/ha, head printed Pre-emergence (flood test species), scale 0 to 10, 0 no effect, 10 complete control
[24] = Rate 31 g/ha, Pre-emergence section (flood test species), scale 0 to 10
[25] = Rate 31 g/ha, 0 to 100 scale, 0 no effect, 100 complete control
[26] = Rate 62 g/ha, 0 to 100 scale, 0 no effect, 100 complete control
[27] = Rate 125 g/ha, 0 to 100 scale (0 no effect, 100 complete control)

SMILES: CC(C)N(C(=O)n1oc(=O)n(C2CCCC2)c1=O)c1ccc(F)cc1F [Compound 284]
- Crabgrass plant response rating (crabgrass; [3]): 4
- Crabgrass plant response rating (crabgrass; [4]): 8
- Plant response rating, Crabgrass (crabgrass; [5]): 9
- Crabgrass plant response rating (crabgrass; [6]): 0
- Crabgrass plant response rating (crabgrass; [7]): 1
- Crabgrass plant response rating (crabgrass; [8]): 4
- Plant response rating, Crabgrass (crabgrass; [9]): 1
- Nutsedge plant response rating (purple nutsedge; [3]): 0
- Nutsedge plant response rating (purple nutsedge; [4]): 0
- Plant response rating, Nutsedge (purple nutsedge; [5]): 0
- Nutsedge plant response rating (purple nutsedge; [6]): 0
- Nutsedge plant response rating (purple nutsedge; [7]): 0
- Nutsedge plant response rating (purple nutsedge; [8]): 0
- Plant response rating, Nutsedge (purple nutsedge; [9]): 0
- Ducksalad plant response rating (duck salad; [10]): 0
- Ducksalad plant response rating (duck salad; [11]): 0
- Ducksalad plant response rating (duck salad; [12]): 0
- Ducksalad plant response rating (duck salad; [13]): 0
- Barnyardgrass plant response rating (bamyardgrass; [10]): 0
- Barnyardgrass plant response rating (bamyardgrass; [11]): 1
- Barnyardgrass plant response rating (bamyardgrass; [12]): 4
- Barnyardgrass plant response rating (bamyardgrass; [13]): 9
- Plant response rating, Wheat (winter) (winter wheat [1]; [14]): 85
- Wheat (winter) plant response rating (winter wheat [1]; [15]): 60
- Plant response rating, Wheat (winter) (winter wheat [1]; [16]): 20
- Blackgrass plant response rating (0 to 100 scale) (blackgrass): 65
- Plant response rating, Blackgrass (blackgrass; [17]): 70
- Green foxtail plant response rating (0 to 100 scale) (green foxtail): 100
- Plant response rating, Green foxtail (green foxtail; [18]): 100
- Plant response rating, Green foxtail (green foxtail; [17]): 100
- I. Ryegrass plant response rating (0 to 100 scale) (Italian ryegrass): 85
- Plant response rating, I. Ryegrass (Italian ryegrass; [18]): 70
- Plant response rating, I. Ryegrass (Italian ryegrass; [17]): 85
- Wheat (winter) plant response rating (0 to 100 scale) (winter wheat [2]): 70
- Plant response rating, Wheat (winter) (winter wheat [2]; [18]): 70
- Plant response rating, Wheat (winter) (winter wheat [2]; [17]): 80
- Wild oat plant response rating (0 to 100 scale) (wild oat): 70
- Plant response rating, Wild oat (wild oat; [18]): 60
- Plant response rating, Wild oat (wild oat; [17]): 70
- Barley (winter) plant response rating (0 to 100 scale) (winter barley): 50
- Plant response rating, Barley (winter) (winter barley; [18]): 30
- Plant response rating, Barley (winter) (winter barley; [17]): 60

SMILES: CC(C)N(C(=O)n1oc(=O)n(CCCF)c1=O)c1ccc(F)cc1 [Compound 287]
- Crabgrass plant response rating (crabgrass; [19]): 2
- Crabgrass plant response rating (crabgrass; [3]): 8
- Crabgrass plant response rating (crabgrass; [20]): 0
- Crabgrass plant response rating (crabgrass; [21]): 0
- Crabgrass plant response rating (crabgrass; [22]): 2
- Crabgrass plant response rating (crabgrass; [6]): 2
- Crabgrass plant response rating (crabgrass; [7]): 5
- Crabgrass plant response rating (crabgrass; [8]): 9
- Nutsedge plant response rating (purple nutsedge; [19]): 0
- Nutsedge plant response rating (purple nutsedge; [3]): 0
- Nutsedge plant response rating (purple nutsedge; [20]): 0
- Nutsedge plant response rating (purple nutsedge; [21]): 0
- Nutsedge plant response rating (purple nutsedge; [22]): 5
- Nutsedge plant response rating (purple nutsedge; [6]): 6
- Nutsedge plant response rating (purple nutsedge; [7]): 6
- Nutsedge plant response rating (purple nutsedge; [8]): 6
- Ducksalad plant response rating (duck salad; [23]): 0
- Ducksalad plant response rating (duck salad; [24]): 0
- Ducksalad plant response rating (duck salad; [10]): 0
- Ducksalad plant response rating (duck salad; [11]): 0
- Barnyardgrass plant response rating (bamyardgrass; [23]): 0
- Barnyardgrass plant response rating (bamyardgrass; [24]): 0
- Barnyardgrass plant response rating (bamyardgrass; [10]): 0
- Barnyardgrass plant response rating (bamyardgrass; [11]): 0
- Plant response rating, Wheat (winter) (winter wheat [1]; [25]): 30
- Plant response rating, Wheat (winter) (winter wheat [1]; Rate 62 g/ha, 0 to 100 scale): 30
- Plant response rating, Wheat (winter) (winter wheat [1]; Rate 125 g/ha, 0 to 100 scale, 0 is no effect, 100 is complete control): 40
- Wheat (winter) plant response rating (winter wheat [1]; [15]): 50
- Plant response rating, Blackgrass (blackgrass; [25]): 30
- Plant response rating, Blackgrass (blackgrass; [26]): 30
- Plant response rating, Blackgrass (blackgrass; [27]): 50
- Blackgrass plant response rating (0 to 100 scale) (blackgrass): 60
- Plant response rating, Green foxtail (green foxtail; [25]): 30
- Plant response rating, Green foxtail (green foxtail; [26]): 60
- Plant response rating, Green foxtail (green foxtail; [27]): 60
- Green foxtail plant response rating (0 to 100 scale) (green foxtail): 90
- Plant response rating, I. Ryegrass (Italian ryegrass; [25]): 20
- Plant response rating, I. Ryegrass (Italian ryegrass; [26]): 50
- Plant response rating, I. Ryegrass (Italian ryegrass; [27]): 55
- I. Ryegrass plant response rating (0 to 100 scale) (Italian ryegrass): 60
- Plant response rating, Wheat (winter) (winter wheat [2]; [25]): 40
- Plant response rating, Wheat (winter) (winter wheat [2]; [26]): 30
- Plant response rating, Wheat (winter) (winter wheat [2]; [27]): 45
- Wheat (winter) plant response rating (0 to 100 scale) (winter wheat [2]): 50
- Plant response rating, Wild oat (wild oat; [25]): 0
- Plant response rating, Wild oat (wild oat; [26]): 30
- Plant response rating, Wild oat (wild oat; [27]): 70
- Wild oat plant response rating (0 to 100 scale) (wild oat): 60
- Plant response rating, Barley (winter) (winter barley; [25]): 30
- Plant response rating, Barley (winter) (winter barley; [26]): 20
- Plant response rating, Barley (winter) (winter barley; [27]): 30
- Barley (winter) plant response rating (0 to 100 scale) (winter barley): 35

SMILES: CC(C)=CCn1c(=O)on(C(=O)N(c2ccc(F)cc2)C(C)C)c1=O [Compound 288]
- Crabgrass plant response rating (crabgrass; [19]): 0
- Crabgrass plant response rating (crabgrass; [3]): 1
- Crabgrass plant response rating (crabgrass; [4]): 10
- Crabgrass plant response rating (crabgrass; [22]): 0
- Crabgrass plant response rating (crabgrass; [6]): 0
- Crabgrass plant response rating (crabgrass; [7]): 0
- Crabgrass plant response rating (crabgrass; [8]): 2
- Plant response rating, Crabgrass (crabgrass; [9]): 3
- Nutsedge plant response rating (purple nutsedge; [19]): 0
- Nutsedge plant response rating (purple nutsedge; [3]): 0
- Nutsedge plant response rating (purple nutsedge; [4]): 0
- Nutsedge plant response rating (purple nutsedge; [22]): 0
- Nutsedge plant response rating (purple nutsedge; [6]): 0
- Nutsedge plant response rating (purple nutsedge; [7]): 0
- Nutsedge plant response rating (purple nutsedge; [8]): 0
- Plant response rating, Nutsedge (purple nutsedge; [9]): 0
- Ducksalad plant response rating (duck salad; [24]): 0
- Ducksalad plant response rating (duck salad; [10]): 0
- Ducksalad plant response rating (duck salad; [11]): 0
- Ducksalad plant response rating (duck salad; [12]): 0
- Barnyardgrass plant response rating (bamyardgrass; [24]): 0
- Barnyardgrass plant response rating (bamyardgrass; [10]): 0
- Barnyardgrass plant response rating (bamyardgrass; [11]): 4
- Barnyardgrass plant response rating (bamyardgrass; [12]): 9
- Plant response rating, Wheat (winter) (winter wheat [1]; [14]): 40
- Wheat (winter) plant response rating (winter wheat [1]; [15]): 35
- Plant response rating, Wheat (winter) (winter wheat [1]; [16]): 30
- Blackgrass plant response rating (0 to 100 scale) (blackgrass): 50
- Plant response rating, Blackgrass (blackgrass; [18]): 50
- Green foxtail plant response rating (0 to 100 scale) (green foxtail): 50
- Plant response rating, Green foxtail (green foxtail; [18]): 60
- Plant response rating, Green foxtail (green foxtail; [17]): 100
- I. Ryegrass plant response rating (0 to 100 scale) (Italian ryegrass): 30
- Plant response rating, I. Ryegrass (Italian ryegrass; [18]): 50
- Plant response rating, I. Ryegrass (Italian ryegrass; [17]): 60
- Wheat (winter) plant response rating (0 to 100 scale) (winter wheat [2]): 40
- Plant response rating, Wheat (winter) (winter wheat [2]; [18]): 30
- Plant response rating, Wheat (winter) (winter wheat [2]; [17]): 55
- Wild oat plant response rating (0 to 100 scale) (wild oat): 20
- Plant response rating, Wild oat (wild oat; [18]): 30
- Plant response rating, Wild oat (wild oat; [17]): 50
- Barley (winter) plant response rating (0 to 100 scale) (winter barley): 0
- Plant response rating, Barley (winter) (winter barley; [18]): 5
- Plant response rating, Barley (winter) (winter barley; [17]): 10

Source: patent publication US6737383B1, “Herbicidal oxadiazolidines” (priority 1999, dated 2004)
